Experimental data taken from BigSolDB 2.1.

COc1ccc(Cl)cc1C(=O)NCCc1ccc(S(=O)(=O)NC(=O)NC2CCCCC2)cc1
solubility (mole fraction)
Settings	283.15 K	288.15 K	293.15 K	298.15 K	303.15 K	308.15 K	313.15 K	318.15 K	323.15 K
in acetone	0.000443	0.000559	0.000701	0.00088	0.00112	0.0014	0.00175	0.00219	0.00269
in ethanol	0.000103	0.000145	0.000196	0.000259	0.000333	0.000437	0.00062	0.000893	0.00122
in ethyl acetate	8.63e-05	0.000115	0.000146	0.000186	0.000236	0.000307	0.000394	0.000511	0.000647
in isopropanol	7.96e-05	9.98e-05	0.00013	0.000176	0.000216	0.000286	0.000422	0.000607	0.000892
in methanol	0.000129	0.000172	0.00022	0.0003	0.000378	0.000477	0.00066	0.00103	0.00137
in water	8.38e-08	8.83e-08	1.05e-07	1.28e-07	1.64e-07	2.3e-07	3.24e-07	4.54e-07	7.84e-07
